Common to all, as to test: Checkerboard microdilution MIC of antibiotic with peptide
(In general: Dilution methods test growth across graded concentrations, often in twofold steps.)

One experiment has as its system S. typhi SH5014. It counts as cell-based, Salmonella typhimurium. The method, then: (§1) The general assay medium was L broth (pH7.2) which contained 10 g of tryptone (Difco Laboratories, Detroit, Mich.), 5 g of yeast extract (Oxoid Ltd., Hampshire, UK) and 5 g of sodium chloride per liter. After an incubation time of 18 hours at 37° C., the growth of each microtiter well is measured with a Titerteck Multiscan spectrophotometer at 405 nm. Before reading, the spectrophotometer was blanked with corresponding uninoculated drug-containing media. The minimum inhibitory concentration (MIC) of an antibiotic was defined as the lowest concentration of the antibiotic expressed in mg/l which reduced the growth of the target bacteria by ≥90% (MIC90).

For a further experiment, the system named is Ps. aeroginosa PAO1. It counts as cell-based. As to conditions: Pseudomonas aeruginosa, no peptide (None, 0). The method, then:
as §1

The subject of a further experiment is E. cloa 12645. The format is cell-based. The note with it: Enterobacter cloacae, no peptide (None, 0). The method, then: as §1
The next experiment has as its system Kl. pneumoniae 12854. It counts as cell-based. The method, then:
as §1

The test system of another experiment is E. coli IH3080. The format is cell-based. The note with it: Escherichia coli, no peptide (None, 0). The method, then:
as §1

The mark [1] stands for this setting: Experiment III, read-out: MIC Novobiocin.
Setting [2] is: Experiment I, read-out: MIC Rifampin.
Setting [3] is: Experiment II, read-out: MIC Fusidic a.
Where [4] appears, read: Experiment IV, read-out: MIC Erythrom.

Where two headings read alike, the source gives them in different places.

One may read the MIC as the lowest concentration that inhibits growth of the organism. Regarding `CO[C@@H]1[C@@H](OC(N)=O)[C@@H](O)[C@H](Oc2ccc3c(O)c(NC(=O)c4ccc(O)c(CC=C(C)C)c4)c(=O)oc3c2C)OC1(C)C` [Novobiocin, novobiocin], the MIC is 30 µg/mL in the experiment on S. typhi SH5014 (read-out: MIC Novobiocin); > 30 µg/mL in the experiment on Ps. aeroginosa PAO1 (setting [1]); > 30 µg/mL in the experiment with E. cloa 12645 (setting [1]); 30 µg/mL in the experiment on Kl. pneumoniae 12854 (Klebsiella pneumoniae, 12854, read-out: MIC Novobiocin); 30 µg/mL with E. coli IH3080 (setting [1]).
Turning to `CO[C@H]1/C=C/O[C@@]2(C)Oc3c(C)c(O)c4c(O)c(c(/C=N/N5CCN(C)CC5)c(O)c4c3C2=O)NC(=O)/C(C)=C\C=C\[C@H](C)[C@H](O)[C@@H](C)[C@@H](O)[C@@H](C)[C@H](OC(C)=O)[C@@H]1C` [Rifampin, rifampin], the MIC in the experiment with S. typhi SH5014 (read-out: MIC Rifampin) is 10 µg/mL; with Ps. aeroginosa PAO1 (setting [2]), > 10 µg/mL; with E. cloa 12645 (setting [2]) it was 10 µg/mL; in the experiment on Kl. pneumoniae 12854 (Klebsiella pneumoniae, 12854, read-out: MIC Rifampin) it was 10 µg/mL; with E. coli IH3080 (setting [2]), 10 µg/mL.
`CC(=O)O[C@H]1C[C@@]2(C)[C@@H](C[C@@H](O)[C@H]3[C@@]4(C)CC[C@@H](O)[C@@H](C)[C@@H]4CC[C@@]32C)/C1=C(\CCC=C(C)C)C(=O)O` [Fusidic a., fusidic acid]: the MIC in the experiment on S. typhi SH5014 (read-out: MIC Fusidic a.) was > 300 µg/mL; in the experiment on Ps. aeroginosa PAO1 (setting [3]), > 300 µg/mL; with E. cloa 12645 (setting [3]), > 300 µg/mL; with Kl. pneumoniae 12854 (Klebsiella pneumoniae, 12854, read-out: MIC Fusidic a.) it was > 300 µg/mL; with E. coli IH3080 (setting [3]), 300 µg/mL.
As to `CC[C@H]1OC(=O)[C@H](C)[C@@H](O[C@H]2C[C@@](C)(OC)[C@@H](O)[C@H](C)O2)[C@H](C)[C@@H](O[C@@H]2O[C@H](C)C[C@H](N(C)C)[C@H]2O)[C@](C)(O)C[C@@H](C)C(=O)[C@H](C)[C@@H](O)[C@]1(C)O` [Erythrom., erythromycin], the minimum inhibitory concentration (MIC) in the experiment on S. typhi SH5014 (read-out: MIC Erythromycin.) was 100 µg/mL; in the experiment on Ps. aeroginosa PAO1 (setting [4]), 100 µg/mL; with E. cloa 12645 (setting [4]), > 100 µg/mL; with Kl. pneumoniae 12854 (Klebsiella pneumoniae, 12854, read-out: MIC Erythrom.), > 100 µg/mL; with E. coli IH3080 (setting [4]), 30 µg/mL.

Source of the values: patent US5834430A, “Potentiation of antibiotics” (BiosYnth S.r.l., priority 1995, dated 1998).
